The record followed here is US4217305A, “Phenylethanolamine derivatives” (Yamanouchi Pharmaceutical Co., Ltd., priority 1977, dated 1980).

Where a name gives a salt, the structure may show the parent alone. Read-outs that look alike come from different tables or passages of the source.

Holding throughout (type): in vivo
For assay [1], the system named is spontaneously hypertensive rats. Nature of the assay: Antihypertensive effects in spontaneously hypertensive rats, oral administration. Particulars: at 10 mg/Kg p.o., mean ± S.E. of 5 to 10 animals, measured indirectly from the tail. As for the experimental part:
B. Antihypertensive effects in spontaneously hypertensive rats: Oral administration: The systolic blood pressure was measured indirectly from the tail using a programmed electro-sphygmanometer (Nacro Bio-Systems Inc., PE-300) on spontaneously hypertensive rats having a systolic blood pressure of higher than 150 mmHg, the result being shown in Table II.

The subject of another assay is β-Adrenergic. Nature of the assay: β-Adrenergic blocking action: antagonism of isoproterenol induced tachycardia in rats. To be noted: reserpine pretreated, pentobarbital anesthetized rats, isoproterenol 0.1 μg/Kg iv.; for ED50: Rattus norvegicus, iv; for β-blocking (Rat) ED50: i.v. The procedure: Bilateral vagotomy was performed at the neck. The effects of the test samples to antagonize the isoproterenol (0.1 μg/Kg iv.) induced tachycardia were measured and the results were shown in Table I.

A further assay relates to α-Adrenergic. Nature of the assay: α-Adrenergic blocking action: antagonism of hypertensive response to phenylephrine in anesthetized rats. Particulars: for ED50: Rattus norvegicus, iv, read-out: α-blocking (Rat) ED50; for α-blocking (Rat) ED50: i.v. The procedure: A. α-Adrenergic blocking action: (a) The blood pressure was measured in rats anesthetized with urethane and treated with pentolinium.

Setting [2] is: urethane anesthetized, pentolinium treated rats, phenylephrine 10 μg/Kg i.v.
The mark [3] stands for this setting: urethane anesthetized, pentolinium treated rats, phenylephrine 10 μg/Kg i.v., hydrochloride.

Turning to `CCOc1ccccc1OCCNCC(O)c1ccc(C)c(S(N)(=O)=O)c1.Cl` (stereo not drawn) [Example 60, 5-{1-Hydroxy-2-[2-(2-ethoxyphenoxy)ethylamino]ethyl}-2-methylbenzenesulfonamide hydrochloride], the “antihypertensive effect: change in systolic blood pressure” value (“antihypertensive effect: change” for short) in assay [1] is reported as -31 ± 2.8 mmHg.

In general, ED50 refers to the dose at which the effect has come halfway, by size or by number of responders. `COc1ccccc1OCC(C)NCC(O)c1ccc(O)c(S(N)(=O)=O)c1.Cl` (stereo not drawn) [Example 43, 2-Hydroxy-5-{1-hydroxy-2-[2-(2-methoxyphenoxy)-1-methylethylamino]ethyl}benzenesulfonamide hydrochloride]: the ED50 with β-Adrenergic turned out to be 0.53 mg/kg; in the assay with α-Adrenergic (setting [2]), 0.0091 mg/kg. The “antihypertensive effect: change” value in assay [1] is listed as -33 ± 6.9 mmHg.

Regarding `Cc1ccc(C(O)CNC(C)CCc2ccccc2)cc1S(N)(=O)=O.Cl` (stereo not drawn) [Example 24, 5-[1-hydroxy-2-(1-methyl-3-phenylpropylamino)ethyl]-2-methylbenzenesulfonamide hydrochloride], in assay [1], the “antihypertensive effect: change” value is on record as -27 ± 6.1 mmHg.

As for `CCOc1ccccc1OCCNCC(O)c1ccc(OC)c(S(N)(=O)=O)c1.Cl` (stereo not drawn) [Example 61, 5-{1-Hydroxy-2-[2-(2-ethoxyphenoxy)ethylamino]ethyl}-2-methoxybenzenesulfonamide hydrochloride], the “antihypertensive effect: change” value in assay [1] is -54 ± 5.4 mmHg.

Turning to `COc1ccccc1CCC(C)NCC(O)c1ccc(C)c(S(N)(=O)=O)c1.Cl` (stereo not drawn) [36(i2), 5-{1-hydroxy-2-[3-(2-methoxyphenyl)-1-methylpropylamino]ethyl}-2-methylbenzenesulfonamide hydrochloride], the “β-blocking (Rat) ED50” value in the assay on β-Adrenergic (hydrochloride) came to 0.41 mg/kg. The “α-blocking (Rat) ED50” value in the assay on α-Adrenergic (setting [3]) is 0.093 mg/kg. Moreover, in assay [1] (hydrochloride, 10 mg/kg), the “antihypertensive effect: change” value was -33 ± 5.7 mmHg.

Turning to `COc1ccccc1OCCNCC(O)c1ccc(C)c(S(N)(=O)=O)c1.Cl` (stereo not drawn) [Example 47, 5-{1-Hydroxy-2-[2-(2-methoxyphenoxy)ethylamino]ethyl}-2-methylbenzenesulfonamide hydrochloride], the ED50 with β-Adrenergic is 0.16 mg/kg; in the assay on α-Adrenergic (setting [2]), 0.034 mg/kg. Moreover, in assay [1], the “antihypertensive effect: change” value is on record as -35 ± 6.4 mmHg.

`COc1cc(C)ccc1OCCNCC(O)c1ccc(C)c(S(N)(=O)=O)c1.Cl` (stereo not drawn) [Example 46, 5-{1-Hydroxy-2-[2-(2-methoxy-4-methylphenoxy)ethylamino]-ethyl}-2-methylbenzenesulfonamide hydrochloride]: the “antihypertensive effect: change” value in assay [1] was -20 ± 4.5 mmHg.

For the compound `Cc1ccc(C(O)CNC(C)COc2ccccc2O)cc1S(N)(=O)=O.Cl` (stereo not drawn) [Example 41, 5-{1-Hydroxy-2-[2-(2-hydroxyphenoxy)-1-methylethylamino]-ethyl}-2-methylbenzenesulfonamide hydrochloride], the values for the ED50 with β-Adrenergic and with α-Adrenergic (setting [2]) were 0.044 mg/kg and 0.66 mg/kg, respectively. In assay [1], the “antihypertensive effect: change” value is -30 ± 4.9 mmHg.

`COc1cc(O)ccc1OCCNCC(O)c1ccc(C)c(S(N)(=O)=O)c1` (stereo not drawn) [Example 13, 5-{1-Hydroxy-2-[2-(4-hydroxy-2-methoxyphenoxy)ethylamino]ethyl}-2-methylbenzenesulfonamide]: the ED50 with β-Adrenergic stood at 0.014 mg/kg; with α-Adrenergic (setting [2]), 0.23 mg/kg.

As for `Cc1ccc(C(O)CNCCOc2ccccc2CO)cc1S(N)(=O)=O` (stereo not drawn) [Example 15, 5-{1-Hydroxy-2-[2-(2-hydroxymethylphenoxy)ethylamino]-ethyl}-2-methylbenzenesulfonamide], the ED50 in the assay on β-Adrenergic worked out at 0.15 mg/kg; in the assay with α-Adrenergic (setting [2]), 0.13 mg/kg. Further, the “antihypertensive effect: change” value in assay [1] is recorded as -11 ± 4.3 mmHg.

On to `Cc1ccc(C(O)CNCCOc2ccc(O)cc2)cc1S(N)(=O)=O.Cl` (stereo not drawn) [Example 45, 5-{1-Hydroxy-2-[2-(4-hydroxyphenoxy)ethylamino]ethyl}-2-methylbenzenesulfonamide hydrochloride], for which the results for the ED50 in the assay on β-Adrenergic and in the assay with α-Adrenergic (setting [2]) were 0.013 mg/kg and 0.86 mg/kg, respectively.

In the case of `COc1ccccc1OCC(C)NCC(O)c1ccc(C)c(S(N)(=O)=O)c1` (stereo not drawn) [69(i1 + i2), 5-{1-hydroxy-2-[2-(2-methoxyphenoxy)-1-methylethylamino]ethyl}-2-methylbenzenesulfonamide], in the assay on β-Adrenergic, the “β-blocking (Rat) ED50” value is 0.083 mg/kg. Also, in the assay with α-Adrenergic (setting [2]), the “α-blocking (Rat) ED50” value came to 0.27 mg/kg. Also, in assay [1] (10 mg/kg), the “antihypertensive effect: change” value is -43 ± 5.8 mmHg.

For `COc1ccccc1OCCNCC(O)c1ccc(OC)c(S(N)(=O)=O)c1.Cl` (stereo not drawn) [Example 48, 5-{1-Hydroxy-2-[2-(2-methoxyphenoxy)ethylamino]ethyl}-2-methoxybenzenesulfonamide hydrochloride], the “antihypertensive effect: change” value in assay [1] is -49 ± 4.9 mmHg.

For the compound `COc1ccccc1OCC(C)NCC(O)c1ccc(OC)c(S(N)(=O)=O)c1.Cl` (stereo not drawn) [Example 34, 5-{1-Hydroxy-2-[2-(2-methoxyphenoxy)-1-methylethylamino]-ethyl}-2-methoxybenzenesulfonamide hydrochloride], the ED50 in the assay with β-Adrenergic came out at 0.28 mg/kg; with α-Adrenergic (setting [2]), 0.068 mg/kg. Further, the “antihypertensive effect: change” value in assay [1] is given as -20 ± 4.3 mmHg.

For the compound `Cc1ccc(C(O)CNCCOc2ccccc2O)cc1S(N)(=O)=O` (stereo not drawn) [Example 63, 5-{1-Hydroxy-2-[2-(2-hydroxyphenoxy)ethylamino]ethyl}-2-methylbenzenesulfonamide], the ED50 with β-Adrenergic came to 0.08 mg/kg; with α-Adrenergic (setting [2]), 0.27 mg/kg.

As for `COc1cc(C(O)CNC(C)CCc2ccccc2)cc(S(N)(=O)=O)c1.Cl` (stereo not drawn) [Example 30, 3-[1-Hydroxy-2-(1-methyl-3-phenylpropylamino)ethyl]-5-methoxybenzenesulfonamide hydrochloride], the ED50 amounted to 0.052 mg/kg in the assay with β-Adrenergic and 1.8 mg/kg in the assay on α-Adrenergic (setting [2]).

Take `CC(NCC(O)c1ccc(O)c(S(N)(=O)=O)c1)C1COc2ccccc2O1` (stereo not drawn) [70(i1'), 2-hydroxy-5-{1-hydroxy-2-[1-(1,4-benzodioxan-2-yl)ethylamino]ethyl}benzenesulfonamide]: the “antihypertensive effect: change” value in assay [1] was -27 ± 6.1 mmHg.

For the compound `COc1ccccc1CCC(C)NCC(O)c1ccc(C)c(S(N)(=O)=O)c1.Cl` (stereo not drawn) [36(i1), 5-{1-hydroxy-2-[3-(2-methoxyphenyl)-1-methylpropylamino]ethyl}-2-methylbenzenesulfonamide hydrochloride], the “β-blocking (Rat) ED50” value in the assay with β-Adrenergic (hydrochloride) was found to be 0.071 mg/kg. Moreover, in the assay with α-Adrenergic (setting [3]), the “α-blocking (Rat) ED50” value was determined as 1.2 mg/kg. The “antihypertensive effect: change” value in assay [1] (hydrochloride, 10 mg/kg) is given as -18 ± 6.1 mmHg.

For the compound `COc1ccc(C(O)CNC(C)CCc2ccccc2)cc1S(N)(=O)=O.Cl` (stereo not drawn) [Example 25, 5-[1-Hydroxy-2-(1-methyl-3-phenylpropylamino)ethyl]-2-methoxybenzenesulfonamide hydrochloride], the ED50 in the assay on β-Adrenergic was determined as 0.035 mg/kg; with α-Adrenergic (setting [2]), 1.3 mg/kg.

On to `CCOc1ccccc1OCC(C)NCC(O)c1ccc(C)c(S(N)(=O)=O)c1.Cl` (stereo not drawn) [Example 39, 5-{1-Hydroxy-2-[2-(2-ethoxyphenoxy)-1-methylethylamino]-ethyl}-2-methylbenzenesulfonamide hydrochloride], for which the ED50 in the assay with β-Adrenergic was 0.27 mg/kg; in the assay on α-Adrenergic (setting [2]) it was 0.066 mg/kg. Also, the “antihypertensive effect: change” value in assay [1] was -11 ± 5.5 mmHg.

For the compound `CCOc1ccccc1OCCNCC(O)c1ccc(O)c(S(N)(=O)=O)c1.Cl` (stereo not drawn) [Example 62, 2-Hydroxy-5-{1-hydroxy-2-[2-(2-ethoxyphenoxy)ethylamino]-ethyl}benzenesulfonamide hydrochloride], the “antihypertensive effect: change” value in assay [1] was -47 ± 6.6 mmHg.

Take `C=CCOc1ccccc1OCCNCC(O)c1ccc(C)c(S(N)(=O)=O)c1.Cl` (stereo not drawn) [Example 18, 5-{2-[2-(2-Allyloxyphenoxy)ethylamino]-1-hydroxyethyl}-2-methylbenzenesulfonamide hydrochloride]: the “antihypertensive effect: change” value in assay [1] is -34 ± 5.2 mmHg.

Regarding `COc1cc(CO)ccc1OCCNCC(O)c1ccc(C)c(S(N)(=O)=O)c1` (stereo not drawn) [Example 50], the ED50 in the assay with β-Adrenergic amounted to 0.049 mg/kg; in the assay with α-Adrenergic (setting [2]) it was 0.3 mg/kg.

For the compound `CC(CCc1ccccc1)NCC(O)c1ccc(N)c(S(N)(=O)=O)c1` (stereo not drawn) [Example 64, 2-Amino-5-[1-hydroxy-2-(1-methyl-3-phenylpropylamino)ethyl]benzenesulfonamide], the ED50 was 0.12 mg/kg in the assay on β-Adrenergic and 0.2 mg/kg in the assay with α-Adrenergic (setting [2]).

For the compound `COc1ccc(C(O)CNC(C)C2COc3ccccc3O2)cc1S(N)(=O)=O` (stereo not drawn) [72(i1'), 5-{1-hydroxy-2-[1-(1,4-benzodioxan-2-yl)ethylamino]ethyl}-2-methoxybenzenesulfonamide hydrochloride (i1 ')], the “antihypertensive effect: change” value in assay [1] was -30 ± 4.3 mmHg.

As to `CCOc1cc(CO)ccc1OCCNCC(O)c1ccc(C)c(S(N)(=O)=O)c1` (stereo not drawn) [Example 52, 5-{1-Hydroxy-2-[2-(2-ethoxy-4-hydroxymethylphenoxy)ethylamino]ethyl}-2-methylbenzenesulfonamide], the results for the ED50 in the assay with β-Adrenergic and in the assay with α-Adrenergic (setting [2]) were 0.022 mg/kg and 1.1 mg/kg, respectively.

Regarding `CC(CCc1ccccc1)NCC(O)c1ccc(O)c(C(N)=O)c1` (stereo not drawn) [Labetalol, 5-[1-hydroxy-2-(1-methyl-3-phenyl-propyl)aminoethyl]salicylamide, reference compound], in the assay with α-Adrenergic, the ED50 is 1.1 mg/kg. In assay [1], the “antihypertensive effect: change” value is recorded as -10 ± 3.6 mmHg.
